From a melting point compilation (Tetko et al.; mined from patent text by program, amines drawn as free bases though some values may be those of a salt) come the findings set out here.

Each structure is given as a SMILES string.

For orientation: melting point means the temperature, or range, at which the solid turns liquid.

The compound `C=CCOc1ccc(NC(=O)CC(C#N)=C(C)O)cc1` yielded a melting point of 162 to 164 °C.

Take `Cc1nnc2c3cccc(Br)c3ccn12`: the melting point lay within 203 to 204 °C.

Turning to `O=C1c2ncccc2C(=O)c2c(-c3ccccc3NC(=O)C(F)(F)F)ccnc21`, the melting point was 205 °C. Then `CC(C)(SCC(=O)O)c1ccc2c(c1)OCO2`, with 78.5 to 80 °C.

The compound `COCCCN1CCC(CNC(=O)c2cc(Cl)c(N)n3cc(C)nc23)CC1` yielded a melting point of 167 °C. Then `COC(=O)C1=C(C)NC(c2csc(Cl)n2)=NC1c1ccc(F)cc1Cl` (configuration not stated), with 160 to 162 °C. `CCCc1nc2c(N)nc3cc(-c4cccc(S(C)(=O)=O)c4)ccc3c2s1` gave a melting point of 242 to 245 °C. Next, `Oc1cccc(-n2nc(-c3ccccc3)c3cccnc32)c1`: 142 to 144 °C; `CCCN(CCC)C(N)=C(C#N)C#N`: 100 to 105 °C.

In turn, `O=C(O)[C@H](Cc1ccccc1)NS(=O)(=O)c1ccc(N2CCC(Cc3ccccc3)CC2)cc1` registered a melting point of 164 to 165 °C. Then `CCc1nc2c(cnn2CC)c(NC2CCOCC2)c1CNC(=O)c1cc(C)cc(C(=O)NCc2ccc(Cl)c(Br)c2)c1`, with 212 to 214 °C; and `CC(C)ON=C(C(=O)O)c1ccccc1`, with 59.5 °C; and `O=C(OC1CCN(Cc2ccccc2)CC1)c1ccccc1Br`, with 69 to 70 °C. Next, `CC(=C1SC(=O)NC1=O)c1cccc(OCCCOc2c(-c3ccc(F)cc3)n(C)c3ccccc3c2=O)c1`: 168 to 170 °C; `OCCCCCCCCCCCCCCC(O)CNCCO` (configuration not stated): 103 °C. Next, `CC1(C)C=Cc2c(ccc3c2C=CC(=O)C3=O)O1`: 189 to 193 °C; `COc1ccc(C2=NN(c3ccccc3)C(=O)[C@H]3CC=CC[C@@H]23)cc1OC` (relative stereo): 134 to 135 °C; `CCC(=O)c1cc(C2(c3cccc(NC(=O)COC)c3)N=C(N)N(C)C2=O)cn1CC` (configuration not stated): 95 to 115 °C. In the case of `Nc1cc(C(=O)O)cc(S(N)(=O)=O)c1Nc1ccc(Cl)cc1`, the melting point was in the range of 273 to 274 °C. Then `CN1C(=O)[C@H](NC(=O)CCc2ccco2)N=C(c2ccccc2)c2ccccc21`, with 115 to 118 °C; and `Cc1nc2c(s1)CCN(C(=O)c1ccc(NC(=O)c3ccccc3-c3ccccc3)cc1)c1ccccc1-2`, with 165 to 168 °C; and `CNc1nc(-c2cccc(NC(=O)c3ccc(N(C)C)nc3)c2)c2cc(OC)c(OC)cc2n1`, with 149 to 151 °C. Next, `CNC(=O)C(SC)c1cccc(C(=O)c2ccccc2)c1N` (configuration not stated): 149 to 150 °C; `O=C1CCCc2nc3ccccc3c(NCc3ccc(C(F)(F)F)cc3)c21`: 174 to 176 °C; `Cc1[nH]c(C(=O)N2CCCC2)c(C)c1-c1nc2ccc(C(=O)c3ccccc3)cc2[nH]1`: 155 to 157 °C. Then `CN1C(=O)CCC(C)(C)c2cc(C(=O)Nc3ccc(C(=O)O)cc3)ccc21`, with greater than 275 °C. On to `CC(C)(C)c1cc(C(=O)NNC(=O)c2occ(-c3ccccc3)c2-c2ccccc2)ccc1O`, for which the melting point was in the range of 244 to 247 °C. Then `COC(=O)c1ccc(OC)c2oc3ccnc(O)c3c12`, with 205 to 207 °C; and `Brc1cncc(C2CCCCN2)c1` (configuration not stated), with 97 to 97.5 °C; and `O=Cc1cc(=O)n2ccsc2n1`, with 184 to 186 °C. Then `CC(=O)N1CCN(c2ccn3nc(-c4ccccc4)c(-c4ccc(=O)n(C(C)C)n4)c3c2)CC1`, with 148 to 149 °C. On to `C[C@@H](NC(=O)c1ccc(-c2ccc(C#N)cc2)s1)[C@](O)(Cn1cncn1)c1ccc(F)cc1F`, for which the melting point is 210 to 211 °C.

As for `CCOC(CCc1c(N(C(C)=O)C(C)=O)nc(NC(C)=O)[nH]c1=O)OCC`, the melting point was in the range of 126 to 137 °C. Compound `COc1ccc2oc(C(=O)c3cc(F)ccc3N3CCOCC3)cc2c1` yielded a melting point of 85 to 88 °C.

In turn, `COc1cc2c(cc1OC)C(Oc1ccccc1)CN(CCCOc1ccccc1)CC2` (configuration not stated) came in with a melting point of 95 to 100 °C. For the compound `CCCCOc1c(CNC(=O)OC(C)(C)C)n(CC(C)(C)C)c(=O)c2cc(F)ccc12`, the melting point was 149 to 150 °C. Then `Oc1ccccc1N1c2ccccc2Sc2ccccc21`, with 192 to 200 °C; and `O=C(Cc1cccc2ccccc12)N[C@H]1C[C@H](C(=O)O)Nc2cc(Cl)cc(Cl)c21` (relative stereo), with 257 to 258 °C; and `Clc1cccc(Nc2ncnc3[nH]c(-c4ccccn4)cc23)c1`, with greater than 300 °C. `CCCCOc1c(CO)n(CC(C)(C)C)c(=O)c2ccc(OCC)cc12` yielded a melting point of 92.5 to 93 °C.

The compound `COC(=O)Nc1nc(-c2ccccc2)c(-c2nc3ccccc3c(=O)n2-c2ccc(C)cc2)s1` gave a melting point greater than 275 °C. Then `CCOC(=O)c1ccc(NCCCc2ccccc2)cc1`, with 80 to 83 °C. Then `COC(=O)c1ccc2oc(-c3cc(C)ccc3OC(C)C)cc(=O)c2c1`, with 149 to 151 °C; and `COC(=O)c1c(-c2cc3ccccc3o2)ccc2ccccc12`, with 111 to 112 °C. Then `O=C1c2[nH]c3cc(Cl)ccc3c2Oc2ccccc2N1Cc1ccccc1`, with 259 to 261 °C; and `CCN(CCCC1CCN(CC(=O)N2c3ccccc3C(=O)Nc3cccnc32)CC1)C(=O)C(C)(C)CC`, with 136 to 138 °C; and `CC(O)(c1ccsc1)c1nccs1` (configuration not stated), with 120 to 122 °C. The compound `Cc1cc(NC(=O)c2cccc(CCc3cc(Nc4ccccc4)n[nH]3)c2)ccc1C(C)C` had a melting point of 150 to 151 °C. Next, `Cc1cc(Sc2ccc3nc(CCl)n(C)c3n2)cc(C)c1[N+](=O)[O-]`: 133 to 135 °C; `CCOc1nc(Br)cnc1N`: 84 °C. Next, `CC(C(=O)c1c(O)c2cccnc2n(-c2cccc(C(F)(F)F)c2)c1=O)c1ccccc1` (configuration not stated): 200 to 201 °C; `CCOC(=O)C1(CC(=O)O)N=C(c2ccc(Cl)cc2)c2c(sc(C)c2C)-n2c(C)nnc21` (configuration not stated): 198 to 202 °C.

Compound `COC(=O)CSc1cccc(CN)c1` showed a melting point of 72 °C.

In turn, `CC1(C)CC(=O)CC(=O)N1` came in with a melting point of 183 to 184 °C. Then `Cc1cc(C)n(-c2nc(Nc3cccc(C(F)(F)F)c3)c3ccccc3n2)n1`, with 233 to 240 °C.

`O=C(O)c1cc(S(=O)(=O)N2CC=CCC2)ccc1Cl` yielded a melting point of 180 to 182 °C. Next, `Cc1ccc2c(c1)C(OC(C)C)=C(C(=O)O)S2=O` (configuration not stated): 184 to 187 °C.

Turning to `O=S(=O)(c1nc(-c2ccc(Cl)c(Cl)c2)c(-c2cccs2)[nH]1)C(F)(F)C(F)F`, the melting point is 158 to 160 °C. Then `CCOC(=O)CCCCCOc1c(/C=C/C(=O)CCc2ccccc2)occc1=O`, with 38.5 to 40 °C; and `COc1ccccc1C(Cl)=C(Cl)n1ccnc1`, with 101 °C; and `CC(C)=CCn1c(N(C)C[C@@H](C)N)nc2c1c(=O)n(C)c(=O)n2C`, with 101 to 104 °C. Next, `COc1ccccc1N1CCN(C[C@@H](O)CN)CC1`: 76 to 80 °C.

The compound `O=C1Nc2ccccc2Nc2ccccc21` showed a melting point of 121 to 123 °C.

With `CCOC(=O)COc1ccnc2c(N)cccc12`, the melting point is 94 °C. Then `CC(F)(F)c1cccc(C(=O)O)c1`, with 96 to 97 °C; and `CCOC=C(C(=O)O)C(=O)C1CC1`, with 108 to 113 °C; and `Nc1cc(Oc2ccc(S(=O)(=O)c3ccc(OCc4ccccc4)c(Cl)c3)cc2Cl)c([N+](=O)[O-])cc1O`, with 181 to 184 °C. Then `Clc1nc(Cl)nc(Nc2ccc(OCc3ccccc3)c(Cl)c2)n1`, with 145 °C; and `CCCC(NC(=O)Cc1ccc(C(=O)O)c(OCC)c1)c1ccccc1N1CCCCC1` (configuration not stated), with 87 to 89 °C; and `CC(C)(C)OC(=O)[C@@H]1CCCN1C[C@@H](O)[C@H](Cc1ccc(F)cc1)NC(=O)[C@H](CC(N)=O)NC(=O)OCc1ccccc1`, with 163 to 164 °C. Consider `C=C(C)CNC(=O)N1CC(Oc2ccc(C(F)(F)F)cc2)C1`, for which the melting point was 101 to 102 °C.

`COc1nc(C(=O)N(C)Cc2cc(C(F)(F)F)cc(C(F)(F)F)c2)c(-c2ccccc2)c2ccccc12` returned a melting point of 129 to 130 °C. Then `O=C(NCc1ccccc1)c1ccnc(-n2cnn(Cc3ccc(F)cc3)c2=O)c1`, with 173 to 175 °C; and `CCCn1c(=O)c2[nH]c(/C=C/c3ccc(OC)c(OC)c3)nc2n(CCC)c1=O`, with 196 °C. Next, `COc1cc(OC)c2c(=O)cc(-c3ccc(C(F)(F)F)cc3)oc2c1C1CCN(C)C1CO` (configuration not stated): 114 to 115 °C; `COC(=O)c1c([N+](=O)[O-])c(OC)c2c(=O)[nH]c(C)nc2c1OC`: 225 °C. In turn, `O=C(NCc1ccccn1)Nc1cc(N2CC(c3cccc(F)c3)CC2=O)ccn1` (configuration not stated) registered a melting point of 188 to 189 °C. Then `Cc1onc(-c2c(Cl)cccc2Cl)c1CN1C(=O)C2(COc3cc4c(cc32)OCO4)c2ccccc21` (configuration not stated), with 190 to 192 °C; and `CC1=NC(NCc2ccc(O)c(OC(F)F)c2)C(C)(Cl)C=N1` (configuration not stated), with 167 to 168 °C. Then `Cc1cccc(C(=O)Nc2ccc(C(=O)N3Cc4cccn4Cc4ccccc43)cc2)c1C`, with 168 to 170 °C; and `CCCCCCCCCC(=O)Nc1c2c(nc3ccccc13)CCCC2`, with 123 to 126 °C. Next, `CNc1ccc(NC(=O)OC2CCCC2)cc1C(Cc1ccc(C(=O)OC)cc1OC)=NOC(C)=O`: 124 to 126 °C; `COP(=O)(Cc1cc(CP(=O)(OC)OC)cc(CP(=O)(OC)OC)c1)OC`: 106 °C.

Compound `O=[N+]([O-])c1ccccc1Cc1n[nH]c(S)n1` returned a melting point of 239 to 241 °C. As to `CC(C)(NC(=O)c1ccc([N+](=O)[O-])cc1)C(=O)CCl`, the melting point is 181 to 182 °C. Then `COc1ccc(S(=O)(=O)C2(C(=O)O)CCN(Cc3ccc(F)cc3)CC2)cc1`, with 154 °C. Next, `COc1ccc2c(C3=C(c4cn(C)c5cc(OC)ccc45)C(=O)NC3=O)cn(C)c2c1`: 257 to 258 °C.
